{
  "source": "patent US6407306B1",
  "about": "“Process for extracting carotenes from carotene-containing materials” (priority 2000, dated 2002)",
  "key": {"[1]": {"settings": "cited from earlier work; for solubility relative to β-carotene: qualitative comparison"}, "[2]": {"experiment": "Solubility of extractant in dense carbon dioxide", "assay_type": "physicochemical", "settings": "70° C. and 120 bar"}},
  "data": [
    {"smiles": "CC1=CCCC(C)(C)C1/C=C/C(C)=C/C=C/C(C)=C/C=C/C=C(C)/C=C/C=C(C)/C=C/C1=C(C)CCCC1(C)C", "note": "(stereo not drawn) [α-Carotene]", "values": [
      {"measurement": "solubility relative to β-carotene", "setting": "[1]", "value": "more readily soluble than β-carotene"}
    ]},
    {"smiles": "CC(C)=CCC/C(C)=C/C=C/C(C)=C/C=C/C(C)=C/C=C/C=C(C)/C=C/C=C(C)/C=C/C1=C(C)CCCC1(C)C", "note": "[γ-Carotene]", "values": [
      {"measurement": "solubility relative to β-carotene", "setting": "[1]", "value": "more readily soluble than β-carotene"}
    ]},
    {"smiles": "CC1=C(/C=C/C(C)=C/C=C/C(C)=C/C=C/C=C(C)/C=C/C=C(C)/C=C/C2=C(C)CCCC2(C)C)C(C)(C)CCC1", "note": "[β-Carotene]", "values": [
      {"measurement": "solubility in benzene", "setting": "[1]; benzene, 19° C.", "value": "0.35 grams per 100 cm^3 of solvent"},
      {"measurement": "solubility in carbon disulfide", "setting": "[1]; carbon disulfide, 19° C.", "value": "5.5 grams per 100 cm^3 of solvent"},
      {"measurement": "solubility in ethanol", "setting": "[1]; ethanol, 19° C.", "value": "0.008 grams per 100 cm^3 of solvent"},
      {"measurement": "solubility in petroleum ether", "setting": "[1]; petroleum ether, 19° C.", "value": "0.1 grams per 100 cm^3 of solvent"}
    ]},
    {"smiles": "O=CN1CCOCC1", "note": "[4-formylmorpholine]", "values": [
      {"measurement": "solubility in carbon dioxide", "setting": "[2]", "value": 9, "unit": "wt. %"}
    ]}
  ]
}
